Laboratory results taken from patent US12708673B2, “Methods and compositions related to peptides and proteins with c-terminal elements” (Sanford Burnham Prebys Medical Discovery Institute, priority 2008, dated 2026).
“Also recorded” adds a separate entry of the source. Ends that are not written are not given here.

How the values were obtained:
Assay type in all cases: cell-based, human
PPC-1 cells [1] = experiment: T7 phage internalization into PPC-1 (PPC1) cells at 37° C. (acid wash and titration, or anti-T7 staining and confocal imaging); conditions: for Effect of endocytosis inhibitor on uptake of CendR peptides (RPARPAR phage internalization): 90 minutes at 37° C., acid wash and titration; for Phage internalization into PPC-1 cells (in words): 37° C.; for Internalization into PPC1 cells compared to native iRGD phage: truncated versions of iRGD phage
Procedure: (§1) FIG. 2A: Binding of T7 phage to prostate cancer cells depends on the display of a C-terminal arginine on the phage particles. PPC1 cells were incubated with T7 bacteriophage displaying derivatives of the G7 (upper graph) or RPARPAR peptide (SEQ ID NO: 2) (lower graph) at 4° C., and the bound phage was quantified by plaque assay. Binding is expressed in fold over of the non-binding G7 control phage. FIG. 2B: Phage displaying C-terminal arginine is internalized into cultured PPC1 cells (arrow, nuclear internalization; arrowhead, cytoplasmic internalization). A panel of T7 phage clones were incubated at 37° C. with PPC1 cells grown on collagen-coated coverslips, stained with anti T7 antibody and imaged by confocal microscopy.
(§2) Phage display. For in vivo phage display, mice were injected intravenously with 10^10 plaque-forming units (pfu) of T7 phage followed by perfusion of the circulatory system and determination of the bound phage in target organs by titration. For cell binding studies on cultured cells (in vitro display) and organ-derived cell suspensions (ex vivo display), the cells were incubated with 10^9 pfu of phage at 4° C., washed, lysed, and quantified by titration. Incubation at 37° C. followed by low pH wash (glycine-HCl, pH 2.5) was used to assess the amount of internalized phage.
(§3) For biopanning and phage binding studies (Hoffman, J. A. et al., 2004), cultured cells were grown to confluence and harvested with trypsin and mouse organs were dissociated using Medimachine (BD Biosciences, San Jose, CA). To measure phage binding, 10^6 cells in binding buffer (DMEM containing 1% BSA) were incubated with 10^9 pfu/ml of T7 phage for 1 hour at 4° C. The cells were washed 4 times with the binding buffer, lysed in LB bacterial growth medium containing 1% NP-40, and titrated. Phage internalization assays used the same procedure, except that the cells were incubated with the phage at 37° C., and that an acidic buffer (500 mM sodium chloride, 0.1 M glycine, 1% BSA, pH 2.5) was used instead of binding buffer in the second wash.
(§4) Centrifugation on a silicone oil cushion (1.03 g/ml) was used to separate unbound phage from cells during time course experiments. Inhibitors of phage binding and internalization (heparin, chondroitin, glycocalyx removal enzymes, endocytosis inhibitors, free peptides, quantum dots and UV-inactivated phage) were added to the cells 20 minutes prior to incubation with phage. Endocytosis inhibitors used in this study were the following: nystatin (50 μg/ml), genistein (100 μg/ml), chlorpromazine (5 μg/ml), 5-(N-ethyl-N-isopropyl) amiloride (100 μM), wortmannin (10 μM).
Immunofluorescence staining. Cultured cells (2×10^5 cells) were grown in 6-well tissue culture plates on collagen-I coated coverslips (BD Biosciences, San Jose, CA) overnight at 37° C. in 5% CO2, and incubated with 10^8 pfu of T7 phage. The cells were fixed in 4% paraformaldehyde or cold (−20° C.) methanol, and stained with antibodies. Nuclei were stained with DAPI or […]. A polyclonal rabbit anti-T7 antibody was generated in-house as described previously (Laakkonen, P. et al. 2002b), except that an additional phage purification step using […] centrifugation was included. Other primary antibodies used were rat anti-mouse CD31 monoclonal antibody (BD Biosciences), rabbit anti-NRP-1, mouse anti-human Lamp-1, mouse anti-human caveolin (Millipore, Temecula, CA), mouse anti-NRP-1 (Miltenyi Biotec Inc., Auburn, CA), mouse anti-human EEA-1 (BD Biosciences, San Jose, CA). The secondary antibodies, Alexa594 goat antibodies to mouse, rat, and rabbit immunoglobulins and Alexa488 donkey anti-rabbit antibody were from Invitrogen (Carlsbad, CA). Cells and tissue sections were examined by confocal microscopy (Fluoview 500, Olympus America Inc., Center Valley, PA).

PPC-1 cells [2] = experiment: Binding and internalization of peptide-coated quantum dots by PPC-1 cells (confocal/fluorescence microscopy)
PPC-1 cells [3] = experiment: T7 phage binding to PPC-1 (PPC1) cells at 4° C., quantified by titration/plaque assay; conditions: for Effect of glycosaminoglycan digestion or competition on RPARPAR phage binding: data not shown
Procedure: as §1, §2, §3, §4

PPC-1 cells [4] = experiment: Confocal immunofluorescence co-staining of phage/qdots with cellular markers in PPC-1 cells; conditions: immunofluorescent co-staining
PPC-1 cells [5] = experiment: Protease treatment of phage followed by phage binding assay on PPC-1 cells at 4° C.
Procedure: 5×10^8 phage particles were incubated with indicated volumes of 2.5% trypsin at 37° C. for 20 min, followed by incubation of the phage with 1×10^6 PPC1 cells at 4° C. for 3 hours. Binding is expressed as fold over non-binding G7 control phage (the internalization of which was not affected by the trypsin treatment).
10^9 pfu of RPARPARA (SEQ ID NO:3) phage was treated with indicated amounts of trypsin at 37° C. followed by phage binding assay at 4° C. The data are representative of 4 independent binding experiments.
FIGS. 20A-20C show urokinase dependent CendR peptide. FIG. 20A: The design of a uPA-activatable CendR peptide (uCendR). […] Statistical analysis was performed with ANOVA (b); n=3; error bars indicate s.d.; triple asterisk, p<0.001. Scale bars: 20 μm.
as §3
Protease treatment of phage and qdots. 10^9 phage particles or 50 μl of peptide-coated qdots phage were treated with 50 iu of uPA, 25 μg of crystalline trypsin, 50 iu of thrombin, or 25 μg of collagenase type I (all Sigma, St. Louis, Mo).

`CCN(c1nc(N)c(C(=O)N=C(N)N)nc1Cl)C(C)C` [5-(N-ethyl-N-isopropyl) amiloride, reference compound] was tested, and the “Effect of endocytosis inhibitor on uptake of CendR peptides (RPARPAR phage internalization)” value (from here on “Effect of endocytosis inhibitor”) (PPC-1 cells [1]) was “None of these inhibitors affected the uptake”.

For `N=C(N)NC(=O)c1nc(Cl)c(N)nc1N` [Amiloride, reference compound], the “Effect on uptake of uPA-CendR qdots” value (PPC-1 cells [2]) was “inhibited uptake”.

With `CN(C)CCCN1c2ccccc2Sc2ccc(Cl)cc21` [chloropromazine, reference compound] the “Effect of endocytosis inhibitor” value (PPC-1 cells [1]) was “None of these inhibitors affected the uptake”.

`O=c1c(-c2ccc(O)cc2)coc2cc(O)cc(O)c12` [genistein, reference compound] was tested, and the “Effect of endocytosis inhibitor” value (PPC-1 cells [1]) was “None of these inhibitors affected the uptake”.

For `C[C@@H]1[C@H](O)[C@@H](C)/C=C/C=C/CC/C=C/C=C/C=C/C=C/C(O[C@H]2O[C@H](C)[C@@H](O)[C@H](N)[C@@H]2O)CC2O[C@](O)(CC(O)C(O)CCC(O)CC(O)CC(O)CC(=O)O[C@H]1C)CC(O)C2C(=O)O` (some centres unmarked) [nystatin, reference compound], the “Effect of endocytosis inhibitor” value (PPC-1 cells [1]) was “None of these inhibitors affected the uptake”.

For ATWLPPR [A7R phage, reference compound], the “Phage binding to PPC-1 cells (in words)” value (PPC-1 cells [3]; 4° C.) was “bound”.

In the case of “CG7C [CG7C control phage, reference compound]”, the “Phage internalization into PPC-1 cells (in words)” value (PPC-1 cells [1]) is reported as “does not”.

In the case of CRGDK [CRGDK phage], the “Internalization into PPC1 cells compared to native iRGD phage” value (PPC-1 cells [1]) is reported as “higher ability to internalize”.

With CRGDKG [CRGDKG phage] the “Internalization into PPC1 cells compared to native iRGD phage” value (PPC-1 cells [1]) was “higher ability to internalize”.

With D-rparpar [D-rparpar qdots] the “Binding and internalization of peptide-coated qdots (in words)” value (shortened to “Binding and internalization … (in words)”) (PPC-1 cells [2]) was “greatly reduced ability to trigger uptake of quantum dots”.

With GGGGGGR [G6R phage] the “Phage binding to PPC-1 cells (in words)” value (PPC-1 cells [3]; 4° C.) was “weak phage binding”.

RGERPPR [RGERPPR phage] was tested, and the “Phage binding to PPC-1 cells (in words)” value (PPC-1 cells [3]; 4° C.) was “robust binding and internalization” and the “Phage internalization into PPC-1 cells (in words)” value (PPC-1 cells [1]) was “robust binding and internalization”.

With RPAR [RPAR phage] the “Effect of UV-inactivated phage on CRGDK phage internalization” value (PPC-1 cells [1]; pre-incubation, various concentrations) was “inhibited by RPAR phage in a dose-dependent fashion”.

With “RPARPAR (also: biotinylated, site not given here, on streptavidin quantum dot) [RPARPAR qdots, streptavidin quantum dots coated with biotinylated RPARPAR peptide with free C-terminus]” the “Effect of excess qdots on G6R phage binding” value (PPC-1 cells [3]; 4° C.) was “blocked”, the “Effect of preincubating cells with qdots on binding of RPARPAR, RGERPPR and RVTRPPR phage” value (PPC-1 cells [3]; 4° C.) was “inhibited” and the “Effect of qdots on binding and internalization of RPARPAR phage” value (PPC-1 cells [3]; bound at 4° C., internalized at 37° C. with low pH wash) was “inhibited both the binding and internalization of RPARPAR phage”. For the same molecule, the “Binding and internalization … (in words)” value (PPC-1 cells [2]) was “robust binding and internalization; also recorded: bound and were internalized in a manner indistinguishable from the phage particles”, the “Time to perinuclear accumulation” value (PPC-1 cells [2]; qdots, 37° C., live cells) was 1 h and the “Time to plasma membrane association” value (PPC-1 cells [2]; qdots, 37° C., live cells) was 15 min. The “Co-localization with NRP-1” value (PPC-1 cells [4]) was “co-localize with NRP-1 at the cell surface and inside the cells”.

For RPARPAR-NH2 [RPARPAR-NH2 qdots], the “Binding and internalization … (in words)” value (PPC-1 cells [2]) was “abolished the binding and internalization; also recorded: blocked qdot internalization”.

For “RPARPARA (also: biotinylated, site not given here, on streptavidin quantum dot) [RPARPARA qdots]”, the “Binding and internalization … (in words)” value (PPC-1 cells [2]) was “prevented”.

With “RPARSGRSAGGSVA (also: biotinylated, site not given here, on streptavidin quantum dot) [uCendR qdots]” the “Internalization of untreated qdots” value (PPC-1 cells [2]; no uPA treatment) was “are not internalized”, the “Internalization of qdots after uPA treatment” value (PPC-1 cells [2]) was “triggers internalization” and the “Internalization of qdots after uPA treatment” value (PPC-1 cells [2]; listed as RPARSGRSAGGSVA qdots) was “internalized in uPA sensitive fashion”.

In the case of RPARSGRSAGGSVA [uPA-CendR phage], the “Effect of phage treatment with collagenase-I on binding” value (PPC-1 cells [5]; 25 μg of collagenase type I) is reported as “had no effect”, the “Effect of phage treatment with thrombin on binding” value (PPC-1 cells [5]; 50 iu of thrombin) is reported as “had no effect” and the “Elevation of binding by pretreatment with uPA” value (PPC-1 cells [5]; 50 iu of uPA prior to cell binding) is reported as “more than 100 fold”. For the same molecule, the “Binding of untreated phage to PPC-1 cells over control G7 phage” value (PPC-1 cells [5]; no protease treatment) was “did not bind” and the “Effect of trypsin treatment of phage on binding (in words)” value (PPC-1 cells [5]; trypsin) was “greatly enhanced the binding”.

In the case of RVTRPPR [RVTRPPR phage], the “Phage binding to PPC-1 cells (in words)” value (PPC-1 cells [3]; 4° C.) is reported as “robust binding and internalization” and the “Phage internalization into PPC-1 cells (in words)” value (PPC-1 cells [1]) is reported as “robust binding and internalization”.

With “TKPPR [enhanced tuftsin phage, reference compound]” the “Phage binding to PPC-1 cells (in words)” value (PPC-1 cells [3]; 4° C.) was “bound”.

With “chondroitin sulfate [reference compound]” the “Effect of glycosaminoglycan digestion or competition on RPARPAR phage binding” value (shortened to “Effect … on RPARPAR phage binding”) (PPC-1 cells [3]) was “had no effect”.

For chondroitinase ABC [reference compound], the “Effect … on RPARPAR phage binding” value (PPC-1 cells [3]) was “had no effect”.

In the case of heparin [reference compound], the “Effect … on RPARPAR phage binding” value (PPC-1 cells [3]) is reported as “had no effect”.

B1: heparinase III: enzyme used for digestion of cell surface glycosaminoglycans (protein, UniProt Q59289 25-659, looked up)
Heparin-sulfate lyase: QSSSITRKDFDHINLEYSGLEKVNKAVAAGNYDDAAKALLAYYREKSKAREPDFSNAEKPADIRQPIDKVTREMADKALVHQFQPHKGYGYFDYGKDINWQMWPVKDNEVRWQLHRVKWWQAMALVYHATGDEKYAREWVYQYSDWARKNPLGLSQDNDKFVWRPLEVSDRVQSLPPTFSLFVNSPAFTPAFLMEFLNSYHQQADYLSTHYAEQGNHRLFEAQRNLFAGVSFPEFKDSPRWRQTGISVLNTEIKKQVYADGMQFELSPIYHVAAIDIFLKAYGSAKRVNLEKEFPQSYVQTVENMIMALISISLPDYNTPMFGDSWITDKNFRMAQFASWARVFPANQAIKYFATDGKQGKAPNFLSKALSNAGFYTFRSGWDKNATVMVLKASPPGEFHAQPDNGTFELFIKGRNFTPDAGVFVYSGDEAIMKLRNWYRQTRIHSTLTLDNQNMVITKARQNKWETGNNLDVLTYTNPSYPNLDHQRSVLFINKKYFLVIDRAIGEATGNLGVHWQLKEDSNPVFDKTKNRVYTTYRDGNNLMIQSLNADRTSLNEEEGKVSYVYNKELKRPAFVFEKPKKNAGTQNFVSIVYPYDGQKAPEISIRENKGNDFEKGKLNLTLTINGKQQLVLVP
For B1, the “Effect … on RPARPAR phage binding” value (PPC-1 cells [3]) was “had no effect”.
